Reference: patent US20180214391A1, “USE OF CURCUMIN AND PHARMACEUTICALLY ACCEPTABLE SALT THEREOF” (TARGETPHARMA LABORATORIES (JIANDSU) CO., LTD., priority 2015, published 2018)

Experiments:
Assay type in all cases: in vivo, C57BL/6 female mice
[1] = Body weight changes of T241-VEGF tumor-bearing mice after treatment (toxicity); conditions: low, medium and high dose of curcumin (2.5, 5, 10 mM, 0.1 ml/each, 14 days); consistent with normally fed animals
Source text: At present, conventional antitumor drugs are accompanied with toxic side effects while taking effect. In this experiment, we evaluated the antitumor effect of curcumin, and examined the toxicity of the drug by observing changes in animals' body weights after treatment. Given that the chemotherapy drug treatment and course of chemotherapy are closely related to the incident rates of antitumor associated syndrome and its severity, positive control in this experiment used the most advanced antitumor antibodies in the world as a control. T241-VEGF is a tumor model with rapid tumor growth and obvious symptom of tumor associated syndrome.
We feed C57BL/6 female mice (SPF grade, 6-8 weeks old, manufactured by Shanghai Silaike Experimental Animal Co., Ltd.) for 2-3 days. The day before subcutaneous inoculation, body hair in back and neck was shaved with a shaving device for the preparation of subcutaneous inoculation of tumor cells. The tumor cells T241-VEGF were collected and washed twice with PBS. After resuspended with PBS and counted, the cells were diluted to 1×10^7 cells/ml with PBS and placed on ice ready for inoculation. Mice were anesthetized with 7% chloral hydrate, 0.1 ml/each, intraperitoneal injection. […]

[2] = test system: liver enlargement and splenomegaly caused by T241-VEGF tumor; experiment: Liver and spleen coefficients of T241-VEGF tumor-bearing mice; conditions: vs tumor control group, p<0.05
Method: We feed C57BL/6 female mice (SPF grade, 6-8 weeks old, manufactured by Shanghai Silaike Experimental Animal Co., Ltd.) for 2-3 days. The day before subcutaneous inoculation, body hair in back and neck was shaved with a shaving device for the preparation of subcutaneous inoculation of tumor cells. The tumor cells T241-VEGF were collected and washed twice with PBS. After resuspended with PBS and counted, the cells were diluted to 1×10^7 cells/ml with PBS and placed on ice ready for inoculation. Mice were anesthetized with 7% chloral hydrate, 0.1 ml/each, intraperitoneal injection. After the mice were completely anesthetized, the mice were subcutaneously inoculated with tumor cells T241-VEGF, 1×10^6/each, with 1 ml medical disposable syringes in the back and neck. Inoculated mice were randomly allocated (8 in each group), weighed, grouped and administered for treatment. In this experiment, curcumin (manufactured by Sigma, cat. no. C1386-10G) was dissolved to 1 mol/L with DMSO and diluted to 2.5 mM, 5 mM and 10 mM with 20% Tween-80 (mixed with PBS) before administration. Detailed information and administration plan is as follows: Control: 20% Tween-80, 0.1 ml/each; The low-dose of curcumin group (Curcumin-2.5 mM): 2.5 mM curcumin, 0.1 ml/each, continuous administration for 14 days; The medium-dose of curcumin group (Curcumin-5 mM): 5 mM curcumin, 0.1 ml/each, continuous administration for 14 days; The high-dose of curcumin group (Curcumin-10 mM): 10 mM Curcumin, 0.1 ml/each, continuous administration for 14 days; Positive control group (PC: anti-VEGF humanized monoclonal antibody, produced by Jiangsu Simcere Pharmaceutical Co., Ltd.): 2 mg/ml, 0.1 ml/each, twice a week, administration for 4 times. Mice were weighed up every other day. Measuring the tumor volume with vernier caliper every other day after tumor grew in the body. […]

T241-VEGF tumors = experiment: Antitumor animal model, subcutaneous T241-VEGF tumor: tumor volume and tumor weight; conditions: for final tumor volume compared with the control group / tumor weight compared with the control group: 0.1 ml/each, 14 days; for tumor weight compared with the control group: FIG. 1-B
Source text: At present, conventional antitumor drugs are accompanied with toxic side effects while taking effect. In this experiment, we evaluated the antitumor effect of curcumin, and examined the toxicity of the drug by observing changes in animals' body weights after treatment. Given that the chemotherapy drug treatment and course of chemotherapy are closely related to the incident rates of antitumor associated syndrome and its severity, positive control in this experiment used the most advanced antitumor antibodies in the world as a control. […]-VEGF is a tumor model with rapid tumor growth and obvious symptom of tumor associated syndrome. We feed C57BL/6 female mice (SPF grade, 6-8 weeks old, manufactured by Shanghai Silaike Experimental Animal Co., Ltd.) for 2-3 days. The day before subcutaneous inoculation, body hair in back and neck was shaved with a shaving device for the preparation of subcutaneous inoculation of tumor cells. The tumor cells […]-VEGF were collected and washed twice with PBS. After resuspended with PBS and counted, the cells were diluted to 1×10^7 cells/ml with PBS and placed on ice ready for inoculation. Mice were anesthetized with 7% chloral hydrate, 0.1 ml/each, intraperitoneal injection. After the mice were completely anesthetized, the mice were subcutaneously inoculated with tumor cells […]-VEGF, 1×10^6/each, with 1 ml medical disposable syringes in the back and neck. Inoculated mice were randomly allocated (8 in each group), weighed, grouped and administered for treatment. In this experiment, curcumin (manufactured by Sigma, cat. no. […]) was dissolved to 1 mol/L with DMSO and diluted to 2.5 mM, 5 mM and 10 mM with 20% Tween-80 (mixed with PBS) before administration. Detailed information and administration plan is as follows: Control: 20% Tween-80, 0.1 ml/each; The low-dose of curcumin group (Curcumin-2.5 mM): 2.5 mM curcumin, 0.1 ml/each, continuous administration for 14 days; The medium-dose of curcumin group (Curcumin-5 mM): 5 mM curcumin, 0.1 ml/each, continuous administration for 14 days; The high-dose of curcumin group (Curcumin-10 mM): 10 mM Curcumin, 0.1 ml/each, continuous administration for 14 days; Positive control group (PC: anti-VEGF humanized monoclonal antibody, produced by Jiangsu […] Pharmaceutical Co., Ltd.): 2 mg/ml, 0.1 ml/each, twice a week, administration for 4 times. Mice were weighed up every other day. Measuring the tumor volume with vernier caliper every other day after tumor grew in the body. In order to further verify the antitumor effect of each dose of curcumin and its effect on liver and spleen, we handled and dissected the animals in each group the day after administration, got tumors, livers, spleens and kidneys, then weighed up all the tissues and stored them respectively.

[3] = test system: anemia symptoms induced by the T241-VEGF tumor animal model; experiment: Blood analysis of anemia symptoms (RBC, HGB, HCT, PLT) in T241-VEGF tumor-bearing mice
Method: We feed C57BL/6 female mice (SPF grade, 6-8 weeks old, manufactured by Shanghai Silaike Experimental Animal Co., Ltd.) for 2-3 days. The day before subcutaneous inoculation, body hair in back and neck was shaved with a shaving device for the preparation of subcutaneous inoculation of tumor cells. The tumor cells T241-VEGF were collected and washed twice with PBS. After resuspended with PBS and counted, the cells were diluted to 1×10^7 cells/ml with PBS and placed on ice ready for inoculation. Mice were anesthetized with 7% chloral hydrate, 0.1 ml/each, intraperitoneal injection. After the mice were completely anesthetized, the mice were subcutaneously inoculated with tumor cells T241-VEGF, 1×10^6/each, with 1 ml medical disposable syringes in the back and neck. Inoculated mice were randomly allocated (8 in each group), weighed, grouped and administered for treatment. In this experiment, curcumin (manufactured by Sigma, cat. no. C1386-10G) was dissolved to 1 mol/L with DMSO and diluted to 2.5 mM, 5 mM and 10 mM with 20% Tween-80 (mixed with PBS) before administration. Detailed information and administration plan is as follows: Control: 20% Tween-80, 0.1 ml/each; The low-dose of curcumin group (Curcumin-2.5 mM): 2.5 mM curcumin, 0.1 ml/each, continuous administration for 14 days; The medium-dose of curcumin group (Curcumin-5 mM): 5 mM curcumin, 0.1 ml/each, continuous administration for 14 days; The high-dose of curcumin group (Curcumin-10 mM): 10 mM Curcumin, 0.1 ml/each, continuous administration for 14 days; Positive control group (PC: anti-VEGF humanized monoclonal antibody, produced by Jiangsu Simcere Pharmaceutical Co., Ltd.): 2 mg/ml, 0.1 ml/each, twice a week, administration for 4 times. Mice were weighed up every other day. Measuring the tumor volume with vernier caliper every other day after tumor grew in the body.
Handled the animals in each group the day after administration, weighed up, then collected blood (stored in 1.5 ml of EP tubes with 20 ul of 0.5M EDTA) after enucleation of the eyeballs and performed blood analysis. Blood samples were taken to evaluate the effect of curcumin on tumor associated syndrome—red blood cell (RBC), hemoglobin (HGB), hematocrit (HCT) and platelet count (PLT) in mice.

[4] = curcumin low, medium and high dose, positive control 2 mg/ml

COc1cc(/C=C/C(=O)CC(=O)/C=C/c2ccc(O)c(OC)c2)ccc1O [curcumin]
body weight [1]: not reduced | liver enlargement (liver coefficient) ([2]; 5 mM curcumin): significantly improve the liver enlargement | liver enlargement (liver coefficient) ([2]; 10 mM curcumin): significantly improve the liver enlargement | spleen enlargement (spleen coefficient) ([2]; 10 mM curcumin): significantly improve the spleen enlargement | final tumor volume compared with the control group (T241-VEGF tumors; 2.5 mM curcumin): inhibited to a certain extent | tumor weight compared with the control group (T241-VEGF tumors; 5 mM curcumin): significantly different | final tumor volume compared with the control group (T241-VEGF tumors; 5 mM curcumin, p<0.01 or p<0.001): significantly different | tumor weight compared with the control group (T241-VEGF tumors; 10 mM curcumin): significantly different | final tumor volume compared with the control group (T241-VEGF tumors; 10 mM curcumin, p<0.01 or p<0.001): significantly different | growth of T241-VEGF tumors (T241-VEGF tumors; low, medium and high dose of curcumin (2.5, 5, 10 mM, 0.1 ml/each, 14 days), FIG. 1-A): can inhibit the growth | platelet (PLT) compared with normal mice ([3]; curcumin at a dose of 10 mM): no statistical differences | anemia symptoms of tumor-bearing mice compared with control group ([3]; curcumin low, medium and high dose (2.5, 5, 10 mM), positive control 2 mg/ml, FIG. 3): improved remarkably | hematocrit (HCT) compared with normal mice [3, 4]: no statistical differences | hemoglobin (HGB) compared with normal mice [3, 4]: no statistical differences | red blood cell (RBC) compared with normal mice [3, 4]: no statistical differences
